Measured values from ChEMBL document CHEMBL1201862, “PubChem BioAssay data set” (2004).
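Five compound concentrations were applied to cells in 96-well plates for 48 hours; endpoints were derived by simple linear interpolation of the resulting dose-response curve. Here, GI50 denotes the concentration required for 50% inhibition of growth.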 The source made the active and inactive calls. Cut-off read from the data, not from the text of the source: active = GI50 up to about 1.1 µM and inactive = higher.

Key:
Experiment in all cases: growth of human tumour cells (NCI), 48 h
[1] = tested on: XF498
[2] = tested on: M19-MEL
[3] = tested on: DMS-114
[4] = tested on: DLD-1
[5] = tested on: LXFL 529
[6] = tested on: SNB-78
[7] = tested on: KM-20L2
[8] = tested on: RXF 631
[9] = tested on: HOP-18

O=C1OC(O)c2cc3c(cc21)OCO3 (centres undefined)
GI50 [1]: > 100 µM (inactive) | GI50 [2]: > 100 µM (inactive) | GI50 [3]: > 100 µM (inactive) | GI50 [4]: > 100 µM (inactive) | GI50 [5]: > 100 µM (inactive) | GI50 [6]: > 100 µM (inactive)

O=C1C2=C(c3ccccc31)C(c1ccccc1Cl)N1C(=O)CCSC1=N2 (centres undefined)
GI50 [7]: > 100 µM (inactive) | GI50 [1]: 79.3 µM (inactive) | GI50 [2]: > 100 µM (inactive) | GI50 [8]: > 100 µM (inactive) | GI50 [3]: > 100 µM (inactive) | GI50 [4]: > 100 µM (inactive)

Cc1c(C(=O)/C=C/C=C/c2ccccc2)[n+]([O-])c2ccccc2[n+]1[O-]
GI50 [7]: 38 µM (inactive) | GI50 [1]: 35 µM (inactive) | GI50 [2]: 34.3 µM (inactive) | GI50 [3]: 25.6 µM (inactive) | GI50 [4]: 14.5 µM (inactive) | GI50 [9]: 45.2 µM (inactive) | GI50 [5]: 18 µM (inactive) | GI50 [6]: 42 µM (inactive)

CC/C(=C(\c1ccccc1)c1ccc(OCC[N+](C)(C)C)cc1)c1ccccc1 [TAMOXIFEN METHYL IODIDE]
GI50 [7]: 15.7 µM (inactive) | GI50 [2]: 11.6 µM (inactive) | GI50 [8]: 19.6 µM (inactive) | GI50 [3]: 9.12 µM (inactive) | GI50 [4]: 15.6 µM (inactive) | GI50 [9]: 13.1 µM (inactive) | GI50 [5]: 10 µM (inactive) | GI50 [6]: 12.2 µM (inactive)

Cc1ccc2c(c1)-c1c3c(nn1C)-c1ccccc1SC3O2 (centres undefined)
GI50 [7]: 87.7 µM (inactive) | GI50 [1]: 23.4 µM (inactive) | GI50 [2]: 81.3 µM (inactive) | GI50 [3]: 32.3 µM (inactive) | GI50 [4]: > 100 µM (inactive) | GI50 [9]: 8.43 µM (inactive) | GI50 [5]: 30.7 µM (inactive) | GI50 [6]: > 100 µM (inactive)

CC(C)(C)C1=CC(=C(P(=O)(O)O)P(=O)(O)O)C=C(C(C)(C)C)C1=O
GI50 [7]: > 50 µM (inactive) | GI50 [2]: > 50 µM (inactive) | GI50 [8]: > 50 µM (inactive) | GI50 [3]: > 50 µM (inactive) | GI50 [4]: > 50 µM (inactive) | GI50 [9]: > 50 µM (inactive) | GI50 [5]: > 50 µM (inactive) | GI50 [6]: > 50 µM (inactive)

CC(C)OC(=O)Nc1c([N+](=O)[O-])cc(C(F)(F)F)cc1[N+](=O)[O-]
GI50 [7]: > 100 µM (inactive) | GI50 [1]: 28.1 µM (inactive) | GI50 [4]: > 100 µM (inactive) | GI50 [9]: 21.6 µM (inactive) | GI50 [5]: > 100 µM (inactive) | GI50 [6]: > 50 µM (inactive)

O=C(COc1ccc(/C=C/C(=O)c2ccc(Cl)cc2)cc1)Nc1c(Cl)cccc1Cl
GI50 [7]: > 100 µM (inactive) | GI50 [2]: > 100 µM (inactive) | GI50 [8]: > 100 µM (inactive) | GI50 [3]: 33.3 µM (inactive) | GI50 [4]: > 100 µM (inactive) | GI50 [9]: > 100 µM (inactive) | GI50 [5]: 78.7 µM (inactive) | GI50 [6]: 58.9 µM (inactive)

CCCCC(=O)OC[n+]1ccc2c(C)c3[nH]c4ccccc4c3c(C)c2c1
GI50 [7]: 0.687 µM (active) | GI50 [2]: 1.07 µM (active) | GI50 [8]: 1.07 µM (active) | GI50 [4]: 0.37 µM (active) | GI50 [9]: 1.34 µM (inactive) | GI50 [5]: 0.855 µM (active) | GI50 [6]: 0.796 µM (active)

CCOC(=O)c1cc2c3c(c(O)c(OC)c2s1)N(C(=O)c1cc2c4c(c(O)c(OC)c2s1)N(C(C)=O)CC4)CC3
GI50 [7]: > 100 µM (inactive) | GI50 [1]: 32.1 µM (inactive) | GI50 [2]: > 100 µM (inactive) | GI50 [8]: 9.08 µM (inactive) | GI50 [3]: > 100 µM (inactive) | GI50 [4]: > 100 µM (inactive) | GI50 [9]: > 100 µM (inactive) | GI50 [5]: 93.3 µM (inactive) | GI50 [6]: > 100 µM (inactive)

COc1cc(OC)c2c(=O)c3cccc([N+](=O)[O-])c3n(C)c2c1
GI50 [7]: > 100 µM (inactive) | GI50 [1]: > 100 µM (inactive) | GI50 [8]: 34.5 µM (inactive) | GI50 [3]: 69.2 µM (inactive) | GI50 [9]: < 0.01 µM (active) | GI50 [5]: > 100 µM (inactive) | GI50 [6]: > 100 µM (inactive)

C/C=C1\Oc2ccc(OC)cc2S1(=O)=O
GI50 [7]: > 100 µM (inactive) | GI50 [2]: > 100 µM (inactive) | GI50 [3]: > 100 µM (inactive) | GI50 [4]: > 100 µM (inactive) | GI50 [9]: > 100 µM (inactive) | GI50 [5]: > 100 µM (inactive) | GI50 [6]: > 100 µM (inactive)

COc1cc(CC(=O)c2cc3c(cc2-c2ccccc2)OCO3)cc(OC)c1OC
GI50 [7]: 96.6 µM (inactive) | GI50 [1]: 17.1 µM (inactive) | GI50 [3]: 16.6 µM (inactive) | GI50 [4]: 81.1 µM (inactive) | GI50 [9]: 16 µM (inactive) | GI50 [5]: 9.38 µM (inactive) | GI50 [6]: 25.8 µM (inactive)

[O-][S+](Cc1ccccc1)c1nc2ccccc2nc1-c1cccs1 (centres undefined)
GI50 [1]: 2.52 µM (inactive) | GI50 [2]: 5.77 µM (inactive) | GI50 [3]: 2.5 µM (inactive) | GI50 [4]: 11 µM (inactive) | GI50 [9]: 15.9 µM (inactive) | GI50 [5]: 3.22 µM (inactive) | GI50 [6]: 22 µM (inactive)

CCCCCCCCCCCCCCCC(=O)OCC1OC(N2C(=O)/C(=N\NC(N)=S)c3ccc([N+](=O)[O-])cc32)C(OC(C)=O)C1OC(C)=O (centres undefined)
GI50 [7]: 57.3 µM (inactive) | GI50 [1]: > 100 µM (inactive) | GI50 [2]: > 100 µM (inactive) | GI50 [8]: > 100 µM (inactive) | GI50 [3]: 66.7 µM (inactive) | GI50 [4]: 77.1 µM (inactive) | GI50 [9]: > 100 µM (inactive) | GI50 [5]: 38.7 µM (inactive) | GI50 [6]: > 100 µM (inactive)

CC(C)CC1CC2C(=O)N(c3ccccc3)C(=O)C2c2[nH]c3ccccc3c21 (centres undefined)
GI50 [7]: > 100 µM (inactive) | GI50 [1]: 20.3 µM (inactive) | GI50 [2]: 34.2 µM (inactive) | GI50 [8]: 15.2 µM (inactive) | GI50 [3]: 15.9 µM (inactive) | GI50 [4]: 29 µM (inactive) | GI50 [9]: 11.4 µM (inactive) | GI50 [5]: 60 µM (inactive) | GI50 [6]: > 74.3 µM (inactive)

Nc1nc2c3nc(Nc4ccccc4)sc3nc(=S)n2c2sc(Nc3ccccc3)nc12
GI50 [7]: > 100 µM (inactive) | GI50 [1]: 1.98 µM (inactive) | GI50 [2]: 13.4 µM (inactive) | GI50 [3]: 20.3 µM (inactive) | GI50 [4]: > 100 µM (inactive) | GI50 [9]: 36.1 µM (inactive) | GI50 [5]: 4.18 µM (inactive) | GI50 [6]: 22.5 µM (inactive)

N#CC1(C#N)C2C=CC(c3coc4cccc2c34)C1(C#N)C#N (centres undefined)
GI50 [7]: 18.5 µM (inactive) | GI50 [1]: 4.99 µM (inactive) | GI50 [2]: 3.05 µM (inactive) | GI50 [3]: 5.11 µM (inactive) | GI50 [4]: 2.02 µM (inactive) | GI50 [9]: 16.6 µM (inactive) | GI50 [5]: 8.87 µM (inactive) | GI50 [6]: 15.8 µM (inactive)

COc1ccc(C(C2=C(C)C(=O)c3ccccc3C2=O)c2ccc(C(C)C)cc(=O)c2O)cc1 (centres undefined)
GI50 [1]: 0.685 µM (active) | GI50 [2]: 2.22 µM (inactive) | GI50 [3]: 2.82 µM (inactive) | GI50 [4]: 4.79 µM (inactive) | GI50 [5]: 4.06 µM (inactive) | GI50 [6]: 5.41 µM (inactive)

COC1CCC(=C2C(=O)OC(C)(C)OC2=O)N1 (centres undefined)
GI50 [7]: > 100 µM (inactive) | GI50 [1]: > 100 µM (inactive) | GI50 [2]: > 100 µM (inactive) | GI50 [3]: > 100 µM (inactive) | GI50 [4]: > 100 µM (inactive) | GI50 [9]: > 100 µM (inactive) | GI50 [5]: > 100 µM (inactive)

CC1(C)C(=O)C(O)=CC2C1=CCC1C2(C)C(=O)CC2(C)C(C(C)(O)C(=O)CC(O)C(C)(C)O)C(O)CC12C (centres undefined)
GI50 [7]: 3.33 µM (inactive) | GI50 [1]: 3.28 µM (inactive) | GI50 [2]: 8.85 µM (inactive) | GI50 [3]: 6.67 µM (inactive) | GI50 [4]: 3.19 µM (inactive) | GI50 [9]: 2.51 µM (inactive) | GI50 [5]: 3.64 µM (inactive) | GI50 [6]: 3.78 µM (inactive)

CCN(CC)c1ccc(Cl)c2c1C(O)(C(C)C)C2(C)C (centres undefined)
GI50 [7]: 14 µM (inactive) | GI50 [2]: 14.7 µM (inactive) | GI50 [3]: 21.2 µM (inactive) | GI50 [4]: 17.4 µM (inactive) | GI50 [9]: 14 µM (inactive) | GI50 [5]: 17 µM (inactive) | GI50 [6]: 28.2 µM (inactive)

CCOC(=O)C/N=c1\nc(SC)sc2c(C(=O)OCC)nc(Sc3ccccc3)n12
GI50 [7]: > 100 µM (inactive) | GI50 [1]: 41.2 µM (inactive) | GI50 [2]: 34 µM (inactive) | GI50 [8]: 25.3 µM (inactive) | GI50 [3]: 62.7 µM (inactive) | GI50 [4]: 34.2 µM (inactive) | GI50 [9]: > 100 µM (inactive) | GI50 [5]: 14.8 µM (inactive)

COc1cccc2c1C(=O)c1c(O)c3c(c(O)c1C2=O)C[C@@](O)(C(C)=O)C[C@@H]3OC1OC(C)C(O)C(N)C1Br (some centres undefined)
GI50 [7]: 0.232 µM (active) | GI50 [1]: 0.129 µM (active) | GI50 [2]: 0.116 µM (active) | GI50 [3]: 0.0316 µM (active) | GI50 [4]: 0.0259 µM (active) | GI50 [9]: 0.0404 µM (active) | GI50 [5]: 0.0601 µM (active) | GI50 [6]: 0.105 µM (active)

Cc1ccc(-c2cc(-c3ccco3)nc(N)n2)o1
GI50 [7]: > 100 µM (inactive) | GI50 [1]: > 100 µM (inactive) | GI50 [5]: > 100 µM (inactive) | GI50 [6]: > 100 µM (inactive)
